# Test results as given in paper PMC11345829, “Discovery of Potent Isoquinolinequinone N-Oxides to Overcome Cancer Multidrug Resistance” (Journal of Medicinal Chemistry, 2024).
# Legend:
# NSCLC cell line panel = assay: NCI60 five-dose GI50, NSCLC cell line panel; type: cell-based; settings: Homo sapiens, read-out: GI50 range NSCLC cell line panel
# Source text: (§1) The concentration−response curve generated enables the determination of three criteria, GI50 (drug concentration at which 50% of cell growth is inhibited), total growth inhibition (TGI) and LC50 (drug concentration at which 50% of tumor cells are killed) which can be used to compare effectiveness against any compound tested in the screen since its inception.
# (§2) S2.1 NCI Screening Assay Experimental details
# (§3) NCI Screening Assay Experimental: Cancer cell growth assays (NCI60 screening) 5,6 One-dose study: Tested compounds were initially solubilised in DMSO, diluted into RPMI 1640 and 5% fetal bovine serum/L-glutamine, and added to 96-well plates containing cell lines previously cultured for 24 h. […] The dye was then resolubilised in Tris buffer, and the colorimetric absorbance was measured (515 nm). Growth inhibition was measured relative to the response generated from proliferating cells cultured under identical conditions for 48 h. […]
# (§4) Five-dose study: Serial 5 × 10-fold dilution from an initial DMSO stock solution was performed, prior to incubation at each individual concentration (10 nM, 100 nM, 1 μM, 10 μM and 100 μM). Using seven absorbance measurements (time zero (Tz), control growth (C), and test growth in the presence of drug at the five concentration levels (Ti)), the percentage growth was calculated at each of the drug concentrations levels. […]
# NCI-H460/R spheroids = assay: Cell Titer-Glo 3D spheroid viability assay; type: cell-based, human; settings: 48 h; 25 at 0.35 and 0.7 μM; etoposide 2 μM
# Experimental: Results are presented as the % of luciferase luminescence relative to the “blank” cells (medium).
# Spheroid formation was conducted in 12-series agarose 3D Petri Dish micromolds (MicroTissues Technology, MicroTissues Inc., Sigma-Aldrich). The agarose micromolds were prepared using 1% agarose in a 0.9% NaCl solution and then placed in 12-well plates and equilibrated with RPMI supplemented with 10% FBS for at least 2 h before cell seeding. Cell suspensions corresponding to 500 cells per spheroid of the NSCLC cell lines (NCI-H460 and NCI-H460/R), and 1000 cells per spheroid of the colorectal cancer cell lines (DLD1 and DLD1-TxR) were seeded in the corresponding micromolds. […] Spheroid formation was monitored with the Leica DMi1 microscope. […] At the end of the treatment, images from at least 8 different spheroids per condition were captured on the Leica Dmi1 microscope, and posteriorly analyzed with the automated open-source software AnaSP.[82] Spheroid parameters, such as equivalent diameter, circularity, and compactness, were calculated.
# Spheroid viability was determined through the luminescence-based Cell Titer-Glo 3D cell viability assay (Promega). […] The plate was then incubated in the dark for 5 min with agitation and allowed to rest for 25 min before luminescence measurement. Luminescence was quantified using the microplate reader Synergy MX coupled with the GEN5 software. […]
# colon cell line panel = assay: NCI60 five-dose GI50, colon cell line panel; type: cell-based; settings: Homo sapiens, read-out: GI50 range colon cell line panel
# Source text: as §1, §2, §3, §4
# NCI-H460 cells [1] = assay: Trypan blue exclusion assay; type: cell-based, human; settings: 48 h; GI50 (0.35 μM) and 2 × GI50 (0.7 μM)
# Experimental: After this treatment, cells were mixed with 0.2% (v/v) trypan blue dye (Merck LifeScience) and counted on an hemocytometer (Neubauer Chamber).
# S3.4 Effect of 25 on the viable cell number of NCI-H460 cells (Figure S65)
# Figure S65 Effect of 25 on the viable cell number of NCI-H460 cells, determined with the Trypan blue exclusion assay. Cells were incubated for 48 h with medium, DMSO (vehicle 1: % of vehicle used at the GI50 concentration of compound; vehicle 2: % of vehicle used at the 2GI50 concentration of compound), […]
# compound 25. Results are the mean ± SEM from at least three independent experiments. # p ≤ 0.05 and **** p ≤ 0.0001, when comparing DMSO vs. compound treatment.
# (§5) (1 picture or pasted object on this page, not shown here)
# MCF12A = assay: SRB cytotoxicity assay, nontumorigenic breast cells; type: cell-based, human; settings: 48 h at GI50 concentration obtained on NCI-H460 cells
# Experimental: Selectivity over nontumorigenic cells is a key requirement in cancer therapy so the cytotoxicity of 25 against nontumorigenic lung fibroblast (MRC-5) and breast cell lines (MCF12A) was evaluated with the SRB assay.
# Compound 25 was also tested on the nontumorigenic MCF-12A human breast epithelial cell line. […] Following this treatment, the SRB assay was performed as described above.
# S3.5 Effect of 25 on the non-tumorigenic MCF12A cell line (Figure S66)
# Figure S66 Cytotoxic effect of compound 25 on the non-tumorigenic MCF12A cell line, analysed by the
# obtained in the NCI-H460 and NCI-H460/R pair of counterpart cell lines. Results are presented as the
# % of cell growth relative to the control cells (treated with the compound vehicle, DMSO at the % used
# Data are expressed as mean ± SEM from 3 independent experiments.
# as §5
# [2] = target: T1, P-gp mediated drug efflux in NCI-H460/R cells (Homo sapiens, UniProt P08183); assay: Rhodamine-123 accumulation (drug efflux) assay; type: cell-based; settings: 1 h, 10 or 20 μM
# T1 construct: these cells overexpress the MDR1 gene which encodes for P-gp; endogenous in cells; host or cells: NCI-H460/R (doxorubicin-selected MDR human NSCLC cells)
# Experimental: Figure 11 Relative rhodamine-123 accumulation in NCI-H460 or in NCI-H460/R cells following treatment with compound 25, evaluated by flow cytometry (rhodamine-123 efflux assay). Cells were incubated for 1 h with medium, DMSO (vehicle at the % used in the highest tested concentration of 25), verapamil (positive control), or compound 25 at two different concentrations (10 and 20 μM). Verapamil (20 μM) was used as a positive control (P-gp inhibitor). Results are the mean ± SEM of at least 3 independent experiments. * p ≤ 0.05, when comparing vehicle (DMSO) vs compound treatment in NCI-H460/R cells.
# The NSCLC cells (1.5 × 10^5 cells/mL) were incubated for 1 h at 37 °C in the presence of 10 μM or 20 μM of compound 25 and with 1 μM of rhodamine-123 (Sigma-Aldrich). NCI-H460 cells without treatment were used as a negative control and NCI-H460/R cells treated with verapamil (a known P-gp inhibitor) at concentrations of 10 and 20 μM were used as a positive controls.[80],[81] After the incubation time, cells were washed in cold PBS and kept at 4 °C, protected from light until analysis in the flow cytometer. At least 10 000 cells per sample were acquired and analyzed on the BD Accuri C6 flow cytometer.
# OVCAR-4 = assay: NCI60 five-dose GI50; type: cell-based; settings: Homo sapiens
# Source text: as §1, §2
# (§6) NCI Screening Assay Experimental: Cancer cell growth assays (NCI60 screening) 5,6 One-dose study: Tested compounds were initially solubilised in DMSO, diluted into RPMI 1640 and 5% fetal bovine serum/L-glutamine, and added to 96-well plates containing cell lines previously cultured for 24 h. After 48 h incubation, the media were removed, and the cells were fixed and stained with sulforhodamine B to determine overall percent growth/ total protein content. Unbound dye was removed with five washes of 1% acetic acid, and the plates were allowed to air dry. The dye was then resolubilised in Tris buffer, and the colorimetric absorbance was measured (515 nm). Growth inhibition was measured relative to the response generated from proliferating cells cultured under identical conditions for 48 h. Data from one-dose experiments pertains to the percentage growth at […]
# as §4, with “levels. Percentage growth inhibition was calculated as: [(Ti − Tz)/(C − Tz)] × 100 for concentrations for which Ti ≥ Tz, [(Ti − Tz)/Tz] × 100 for concentrations for which Ti < Tz. Three dose response parameters were calculated for each experimental agent.” for “levels.”
# (§7) was calculated from [(Ti − Tz)/(C − Tz)] × 100 = 50, which is the drug concentration resulting in a 50% reduction in the net protein increase (as measured by sulforhodamine B staining) in control cells during the drug incubation. The drug concentration resulting in total growth inhibition (TGI) was calculated from Ti = Tz. The LC50 (concentration of drug resulting in a 50% reduction in the measured protein at the end of the drug treatment as compared to that at the beginning) indicating a net loss of cells following treatment was calculated from [(Ti − Tz)/Tz] × 100 = −50. Values were calculated for each of these three parameters if the level of activity was reached; however, if the effect was not reached or was exceeded, the value for that parameter was expressed as greater or less than the maximum or minimum concentration tested.
# MALME-3M = assay: NCI60 five-dose GI50; type: cell-based; settings: Homo sapiens
# Source text: as §1, §2, §6
# as §4, with “levels. Percentage growth inhibition was calculated as: [(Ti − Tz)/(C − Tz)] × 100 for concentrations for which Ti ≥ Tz, [(Ti − Tz)/Tz] × 100 for concentrations for which Ti < Tz. Three dose response parameters were calculated for each experimental agent.” for “levels.”
# as §7
# NCI-H460 cells [3] = test system: NCI-H460 cells; set-up: method as in PMID 34915071; settings: cited from earlier work
# T1 sequence (P08183 whole entry): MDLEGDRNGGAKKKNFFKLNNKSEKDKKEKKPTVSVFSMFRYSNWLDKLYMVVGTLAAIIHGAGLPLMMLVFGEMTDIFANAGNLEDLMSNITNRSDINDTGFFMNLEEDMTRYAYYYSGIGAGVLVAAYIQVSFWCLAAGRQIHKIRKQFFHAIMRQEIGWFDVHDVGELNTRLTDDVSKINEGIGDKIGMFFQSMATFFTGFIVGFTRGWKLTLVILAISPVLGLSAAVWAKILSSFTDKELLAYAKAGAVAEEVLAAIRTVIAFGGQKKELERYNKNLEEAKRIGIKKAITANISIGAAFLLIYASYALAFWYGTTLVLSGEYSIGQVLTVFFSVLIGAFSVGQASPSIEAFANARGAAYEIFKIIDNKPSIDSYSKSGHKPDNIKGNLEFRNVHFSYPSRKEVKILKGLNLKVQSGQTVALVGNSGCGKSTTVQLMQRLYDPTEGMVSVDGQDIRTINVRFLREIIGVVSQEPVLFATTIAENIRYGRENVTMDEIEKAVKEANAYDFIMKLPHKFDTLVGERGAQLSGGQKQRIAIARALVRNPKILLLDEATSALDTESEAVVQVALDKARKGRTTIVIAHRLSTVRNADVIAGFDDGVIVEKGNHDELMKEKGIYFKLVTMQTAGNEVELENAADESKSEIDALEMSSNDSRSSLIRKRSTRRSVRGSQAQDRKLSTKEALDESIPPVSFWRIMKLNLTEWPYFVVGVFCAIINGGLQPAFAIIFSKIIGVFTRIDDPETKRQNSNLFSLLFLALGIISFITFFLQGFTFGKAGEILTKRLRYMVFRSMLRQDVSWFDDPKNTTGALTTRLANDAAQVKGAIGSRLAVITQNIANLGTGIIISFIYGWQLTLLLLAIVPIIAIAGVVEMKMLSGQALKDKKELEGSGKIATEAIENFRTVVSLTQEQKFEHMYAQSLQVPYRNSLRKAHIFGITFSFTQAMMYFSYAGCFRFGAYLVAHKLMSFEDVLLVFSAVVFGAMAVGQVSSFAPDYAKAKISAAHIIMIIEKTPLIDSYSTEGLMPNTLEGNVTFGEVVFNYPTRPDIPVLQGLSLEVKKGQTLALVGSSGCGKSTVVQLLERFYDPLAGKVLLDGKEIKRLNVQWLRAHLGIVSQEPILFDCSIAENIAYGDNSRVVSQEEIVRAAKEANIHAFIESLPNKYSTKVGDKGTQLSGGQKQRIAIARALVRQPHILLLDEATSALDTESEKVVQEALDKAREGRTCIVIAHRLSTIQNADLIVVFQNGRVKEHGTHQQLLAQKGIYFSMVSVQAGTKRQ
compound,measurement,setting,value
COC(=O)c1c2c(c[n+]([O-])c1C)C(=O)C=C(NCc1ccccc1)C2=O [Compound 25],GI50,NSCLC cell line panel,174 to 397 nM
same,viability of NCI-H460/R spheroids,NCI-H460/R spheroids,significant decrease in the viability of the spheroids
same,GI50,colon cell line panel,157 to 247 nM
same,percentage of viable cells,NCI-H460 cells [1],significant decrease in the percentage of viable cells
same,effect on MCF12A growth,MCF12A,did not cause significant alterations in the growth of these nontumorigenic cells
same,rhodamine-123 accumulation,[2],"caused rhodamine accumulation within the cells, in a similar extent to the positive control verapamil"
same,GI50,OVCAR-4,69 nM
same,GI50,MALME-3M,48 nM
"COc1cccc2c1C(=O)c1c(O)c3c(c(O)c1C2=O)C[C@@](O)(C(=O)CO)C[C@@H]3O[C@H]1C[C@H](N)[C@H](O)[C@H](C)O1 [doxorubicin, reference compound]",concentration reducing viability of NCI-H460 cells in 2D models,NCI-H460 cells [3],0.1 µM
